Results as given in patent publication US4263309A, “Polycyclic triazoles used to inhibit allergic responses” (Beecham Group Limited, priority 1977, dated 1981).

Assays:
[1] = system: passive cutaneous anaphylaxis (PCA), ovalbumin challenge; test: Passive cutaneous anaphylaxis (PCA) in rats; type: in vivo, Male Wistar rats; conditions: S.C., PBS with NaHCO3, rat
Protocol: Serum containing heat labile homocytotropic anitbody was raised in rats to crystallized ovalbumin XOA by the method of Mota (I. Mota, Immunology, 7,681 [1964]) using Bordettela pertussis vaccine as adjuvant.
Passive cutaneous anaphylaxis (PCA) was carried out by a method based on that of Ovary and Bier, (A. Ovary and O. G. Bier, Proc. Soc. Exp. Biol. Med. 81, 584, [1952]) as modified by Goose and Blair. (Immunology 16, 749 (1969).
Male Wistar rats of 250-300 g. were given 0.1 ml. of each of six twofold serial dilutions of pooled antiserum in 0.9% saline injected intradermally into separate sites on their shaved backs. Later (72 hrs.) the animals were challenged by intravenous injection of 0.3 ml. of a 1% solution of ovalbumin in an isotonic solution of saline buffered with 0.05 M, pH 7.2, Sorenson Buffer (PBS), mixed with 0.2 ml. of a 5% solution of Pontamine Sky Blue (6BX C.I. 24410, Raymond A. Lamb, London) in isotonic saline. The rats were killed after 20 min and the diameter of the blue wheals at the antibody injection sites was measured on the outer surface of the skin. The starting dilution of the serum was adjusted so that there was no response, after challenge, at the injection site of the highest dilution and a maximum response at the lowest dilutions. Typically six twofold serial dilutions of the serum from 1/4 to 1/128 were used.
Compounds were tested for their ability to reduce the diameter of the wheals at those intradermal sites which in control animals gave less than maximum response. Each dose of the compound was administered to six rats at a measured time prior to intravenous challenge with ovalbumin. Control groups of six rats were given the same volume of carrier fluid (0.2 ml, 100 g^-1) at the same time prior to challenge.
The results were calculated as follows: % inhibition of PCA=100 (1-a/b) where a=the sum of the diameters of the wheals produced in the test animal at the sites of antibody dilutions as used in control groups and b=the mean sum of the diameters of the wheals produced in the control group of animals at those antibody sites where at least five out of six of the animals gave less than maximum response. A typical variations in the control group of animals was SEM±6%.

Oral LD50 toxicity = type: in vivo; conditions: rat, in vivo, Charles River Sprage Dawley CD strain male rats
Description: (§1) Toxicity: Oral LD50 of the compound of example 1(d) in Charles River Sprage Dawley CD strain Male Rats: 980 mgkg^-1. LD50 data confidence limits: 95%, 548-1,413 mgkg^-1.

[2] = system: Charles River Sprage Dawley CD strain Male Rats; test: Oral LD50 toxicity; type: in vivo; conditions: 95% confidence limits
Description: as §1

Cc1cc2c(c([N+](=O)[O-])c1C)C(=O)c1nn[nH]c1C2=O [Example 6, 4,9-Dihydro-6,7-dimethyl-4,9-dioxo-5-nitronaphtho[2,3-d]-triazole]
% Inhib PCA ([1]; 10 mins, 1 mg/kg): 66% | % Inhib PCA ([1]; 30 mins, 1 mg/kg): 28%

Cc1ccc2c(c1)C(=O)c1nn[nH]c1C2=O [2(d), 4,9-Dihydro-4,9-dioxo-6methyl-1H-naphtho[2,3-d]-triazole]
% Inhib PCA ([1]; 10 mins, 20 mg/kg): 73% | % Inhib PCA ([1]; 30 mins, 20 mg/kg): 57%

COc1ccc2c(c1)C(=O)c1nn[nH]c1C2=O [3(e), 4,9-Dihydro-4,9-dioxo-6-methoxy-1H-naphtho[2,3-d]-triazole]
% Inhib PCA ([1]; 10 mins, 20 mg/kg): 61% | % Inhib PCA ([1]; 30 mins, 20 mg/kg): 34%

O=C1c2cccc([N+](=O)[O-])c2C(=O)c2[nH]nnc21 [Example 4, 4,9-Dihydro-4,9-dioxo-5-nitro-1H-naphtho-[2,3-d]-triazole]
% Inhib PCA ([1]; 10 mins, 10 mg/kg): 44% | % Inhib PCA ([1]; 30 mins, 10 mg/kg): 19%

Cc1cc2c(cc1C)C(=O)c1[nH]nnc1C2=O [1(d), 4,9-dihydro-6,7-dimethyl-4,9-dioxo-1H-naphtho[2,3-d]-triazole]
LD50 (Oral LD50 toxicity): 980 mg/kg | LD50 data confidence limits: 95% [2]: 548-1,413 mgkg^-1 | % Inhib PCA ([1]; 5 mins, 0.1 mg/kg): 30% | % Inhib PCA ([1]; 5 mins, 0.2 mg/kg): 54% | % Inhib PCA ([1]; 5 mins, 0.4 mg/kg): 61% | % Inhib PCA ([1]; 5 mins, 0.8 mg/kg): 86%

O=C1c2ccccc2C(=O)c2[nH]nnc21 [Example 8, 4,9-Dihydro-4,9-dioxo-1H-naphtho[2,3-d]-triazole]
% Inhib PCA ([1]; 5 mins, 1 mg/kg): 39% | % Inhib PCA ([1]; 5 mins, 2 mg/kg): 82%

O=C1c2ccc(F)cc2C(=O)c2[nH]nnc21 [5(e), 4,9-Dihydro-4,9-dioxo-6-fluoro-1H-naphtho[2,3-d]-triazole]
% Inhib PCA ([1]; 10 mins, 20 mg/kg): 90% | % Inhib PCA ([1]; 30 mins, 20 mg/kg): 27%
